# According to paper PMC5431883, “Enhancing Specific Disruption of Intracellular Protein Complexes by Hydrocarbon Stapled Peptides Using Lipid Based Delivery” (Scientific Reports, 2017):
# Positions of bridges follow the written chain, without caps; N, C: chain ends. Non-standard residues stand in square brackets, D forms with d. Residues, ends and D or L forms follow the SMILES beside them. Trp(6-Cl) = N[C@@H](Cc1c[nH]c2cc(Cl)ccc12)C(=O)O; Lys(Me2) = CN(C)CCCC[C@H](N)C(=O)O; R8 = C=CCCCCCC[C@@](C)(N)C(=O)O; Cba = N[C@@H](CC1CCC1)C(=O)O; S5 = C=CCCC[C@](C)(N)C(=O)O; Ahx = NCCCCCC(=O)O
# Biological target: T1, Mdm2 (1-125) (Homo sapiens, UniProt Q00987)
# T1 construct: Purified MDM2 (1-125) protein was titrated against 50 nM carboxyfluorescein (FAM)-labeled; GST (N, cleaved yes); made in house; host or cells: E. coli BL21 DE3 (pGEX-6P-1)
# T1 sequence (Q00987 1-125): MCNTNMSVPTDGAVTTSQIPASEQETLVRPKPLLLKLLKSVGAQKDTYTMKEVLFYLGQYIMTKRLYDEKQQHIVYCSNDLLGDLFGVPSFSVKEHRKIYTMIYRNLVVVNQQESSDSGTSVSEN
# Assay: Mdm2 competitive fluorescence anisotropy assay (FAM-labeled 12/1 peptide displacement); also: 250 nM MDM2
# Assay type: binding
# Conditions: read-out: Kd (apparent dissociation constant, competitive fluorescence anisotropy)
# Method: analyzed with SDS page gel and concentrated using a Centricon (3.5 kDa MWCO) concentrator, Millipore. Mdm2 protein samples were then dialyzed into a buffer solution containing 20mM Bis-Tris, pH 6.5, 0.05M NaCl with 1mM DTT and loaded onto a monoS column pre-equilibrated in buffer A (20mM Bis-Tris, pH 6.5, 1mM DTT). The column was then washed in 6 column volumes of buffer A and bound protein was eluted with a linear gradient of 1M NaCL over 25 column volumes. Protein fractions were analyzed with SDS page gel and concentrated using a Centricon (3.5 kDa MWCO) concentrator, Millipore.
# Protein concentration was determined using A280 using an extinction coefficients […]
# Mdm2 Competitive Fluorescence Anisotropy Assay and Kd Determination […]
# Dissociation constants for titration of MDM2 against […]
# equation shown below:25,26
# [P] is the protein concentration (MDM2), [L] is the labeled peptide concentration, r is the anisotropy measured, r0 is the anisotropy of the free peptide, rb is the anisotropy of the MDM2– FAM-labeled peptide complex, Kd is the dissociation constant, [L]t is the total FAM labeled
# (1 picture or pasted object on this page, not shown here) […]
# peptide concentration, and [P]t is the total MDM2 concentration. […]
# respective competing ligands in subsequent competition assays.
# Apparent Kd values were determined for a variety of molecules via competitive fluorescence anisotropy experiments. Titrations were carried out with the concentration of MDM2 held constant […]
# The competing molecules were then titrated against the complex of the FAM-labeled peptide and protein. Apparent Kd values were determined by fitting the experimental data to the equations shown below:26,27 […]
# [L]st and [L]t denote labeled ligand and total unlabeled ligand input concentrations, respectively.
# Kd2 is the dissociation constant of the interaction between the unlabeled ligand and the protein. In […]
# all competitive types of experiments, it is assumed that [P]t > [L]st, otherwise considerable amounts of free labeled ligand would always be present and would interfere with measurements. Kd1 is the […]
# experimentally determined as described in the previous paragraph. The FAM-labeled peptide was dissolved in dimethyl sulfoxide (DMSO) at 1 mM and diluted into experimental buffer. Readings were carried out with an Envision Multilabel Reader (PerkinElmer). Experiments were carried out […]
# Tween 20 buffer. All titrations were carried out in triplicate. Curve-fitting was carried out using […]
# Negative control titrations of the ligands under investigation were also carried out with the fluorescently labeled peptide (in the absence of MDM2) to ensure no interactions were occurring between the ligands and FAM-labeled peptide. […]
# which would otherwise indicate an unintended interaction between the ligand and the FAM-labeled peptide to be displaced from the MDM2 binding site. […]
row,Kd [nM],SMILES
1,23.5 ± 1.4,CC(=O)N[C@@H](CCCCN)C(=O)N[C@@H](CCCCN)C(=O)NCCCCCC(=O)N[C@H](C(=O)N[C@@H](CO)C(=O)N[C@@H](Cc1ccccc1)C(=O)N[C@]1(C)CCCCCCC=CCCC[C@@](C)(C(=O)N[C@@H](CCC(=O)O)C(=O)N[C@@H](CC(N)=O)C(=O)N[C@@H](Cc2ccc(O)cc2)C(N)=O)NC(=O)[C@H](CC(C)C)NC(=O)[C@H](CC(C)C)NC(=O)[C@H](C)NC(=O)[C@H](Cc2c[nH]c3ccccc23)NC(=O)[C@H](Cc2ccc(O)cc2)NC(=O)[C@H](CCC(=O)O)NC1=O)[C@@H](C)O [VIP-86] (Ac-KK[Ahx]TSF[R8]EYWALL[S5]ENY-NH2; staple 7-14)
2,2.7 ± 0.4,CC(=O)N[C@@H](CCCCN)C(=O)N[C@@H](CCCCN)C(=O)NCCCCCC(=O)N[C@H](C(=O)N[C@@H](CO)C(=O)N[C@@H](Cc1ccccc1)C(=O)N[C@]1(C)CCCCCCC=CCCC[C@@](C)(C(=O)N[C@@H](CCC(=O)O)C(=O)N[C@@H](CC(N)=O)C(=O)N[C@@H](Cc2ccccc2)C(N)=O)NC(=O)[C@H](CC2CCC2)NC(=O)[C@H](CC(C)C)NC(=O)[C@H](C)NC(=O)[C@H](Cc2c[nH]c3ccccc23)NC(=O)[C@H](Cc2ccc(O)cc2)NC(=O)[C@H](CCC(=O)O)NC1=O)[C@@H](C)O [VIP-124] (Ac-KK[Ahx]TSF[R8]EYWAL[Cba][S5]ENF-NH2; staple 7-14)
3,44.9 ± 3.5,CC(=O)N[C@@H](CCCNC(=N)N)C(=O)N[C@@H](CCCNC(=N)N)C(=O)N[C@@H](CCCNC(=N)N)C(=O)NCCCCCC(=O)N[C@H](C(=O)N[C@@H](CO)C(=O)N[C@@H](Cc1ccccc1)C(=O)N[C@]1(C)CCCCCCC=CCCC[C@@](C)(C(=O)N[C@@H](CCC(=O)O)C(=O)N[C@@H](CC(N)=O)C(=O)N[C@@H](Cc2ccc(O)cc2)C(N)=O)NC(=O)[C@H](CC(C)C)NC(=O)[C@H](CC(C)C)NC(=O)[C@H](C)NC(=O)[C@H](Cc2c[nH]c3ccccc23)NC(=O)[C@H](Cc2ccc(O)cc2)NC(=O)[C@H](CCC(=O)O)NC1=O)[C@@H](C)O [VIP-85] (Ac-RRR[Ahx]TSF[R8]EYWALL[S5]ENY-NH2; staple 8-15)
4,23.1 ± 1.5,CC(=O)N[C@H](C(=O)N[C@@H](CO)C(=O)N[C@@H](Cc1ccccc1)C(=O)N[C@]1(C)CCCCCCC=CCCC[C@@](C)(C(=O)N[C@@H](CCC(=O)O)C(=O)N[C@@H](CC(N)=O)C(=O)N[C@@H](Cc2ccc(O)cc2)C(N)=O)NC(=O)[C@H](CC(C)C)NC(=O)[C@H](CC(C)C)NC(=O)[C@H](C)NC(=O)[C@H](Cc2c[nH]c3ccccc23)NC(=O)[C@H](Cc2ccc(O)cc2)NC(=O)[C@H](CCC(=O)O)NC1=O)[C@@H](C)O [VIP-66]
5,< 1,CC(=O)N[C@H](C(=O)N[C@@H](CO)C(=O)N[C@@H](Cc1ccccc1)C(=O)N[C@]1(C)CCCCCCC=CCCC[C@@](C)(C(=O)N[C@@H](CCC(=O)O)C(N)=O)NC(=O)[C@H](CC2CCC2)NC(=O)[C@H](CC(C)C)NC(=O)[C@H](C)NC(=O)[C@H](Cc2c[nH]c3cc(Cl)ccc23)NC(=O)[C@H](Cc2ccc(O)cc2)NC(=O)[C@H](CCC(=O)O)NC1=O)[C@@H](C)O [VIP-138] (Ac-TSF[R8]EY[Trp(6-Cl)]AL[Cba][S5]E-NH2; staple 4-11)
6,35.9 ± 2.3,CC(=O)N[C@H](C(=O)N[C@@H](CO)C(=O)N[C@@H](Cc1ccccc1)C(=O)NC(C)(C)C(=O)N[C@@H](CCC(=O)O)C(=O)N[C@@H](Cc1ccc(O)cc1)C(=O)N[C@@H](Cc1c[nH]c2ccccc12)C(=O)N[C@@H](C)C(=O)N[C@@H](CC(C)C)C(=O)N[C@@H](CC(C)C)C(=O)NC(C)(C)C(=O)N[C@@H](CCC(=O)O)C(N)=O)[C@@H](C)O [VIP-76]
7,9.1 ± 1,CC(=O)N[C@@H](CCCCN)C(=O)N[C@@H](CC(C)C)C(=O)N[C@@H](C)C(=O)N[C@@H](CCCCN)C(=O)NCCCCCC(=O)N[C@H](C(=O)N[C@@H](CO)C(=O)N[C@@H](Cc1ccccc1)C(=O)N[C@]1(C)CCCCCCC=CCCC[C@@](C)(C(=O)N[C@@H](CCC(=O)O)C(=O)N[C@@H](CC(N)=O)C(=O)N[C@@H](Cc2ccccc2)C(N)=O)NC(=O)[C@H](CC(C)C)NC(=O)[C@H](CC(C)C)NC(=O)[C@H](C)NC(=O)[C@H](Cc2c[nH]c3ccccc23)NC(=O)[C@H](Cc2ccc(O)cc2)NC(=O)[C@H](CCC(=O)O)NC1=O)[C@@H](C)O [VIP-129] (Ac-KLAK[Ahx]TSF[R8]EYWALL[S5]ENF-NH2; staple 9-16)
8,11.6 ± 1.2,CC(=O)N[C@@H](CCCCN)C(=O)N[C@@H](CCCCN)C(=O)N[C@@H](CCCCN)C(=O)NCCCCCC(=O)N[C@H](C(=O)N[C@@H](CO)C(=O)N[C@@H](Cc1ccccc1)C(=O)N[C@]1(C)CCCCCCC=CCCC[C@@](C)(C(=O)N[C@@H](CCC(=O)O)C(=O)N[C@@H](CC(N)=O)C(=O)N[C@@H](Cc2ccccc2)C(N)=O)NC(=O)[C@H](CC(C)C)NC(=O)[C@H](CC(C)C)NC(=O)[C@H](C)NC(=O)[C@H](Cc2c[nH]c3ccccc23)NC(=O)[C@H](Cc2ccc(O)cc2)NC(=O)[C@H](CCC(=O)O)NC1=O)[C@@H](C)O [VIP-115] (Ac-KKK[Ahx]TSF[R8]EYWALL[S5]ENF-NH2; staple 8-15)

# The next lines start with the compound.
row,SMILES,Kd [nM]
1,CC(=O)N[C@@H](CCCCN)C(=O)N[C@@H](CC(C)C)C(=O)N[C@@H](C)C(=O)N[C@@H](CCCCN)C(=O)NCCCCCC(=O)N[C@H](C(=O)N[C@@H](CO)C(=O)N[C@@H](Cc1ccccc1)C(=O)N[C@]1(C)CCCCCCC=CCCC[C@@](C)(C(N)=O)NC(=O)[C@H](CC(C)C)NC(=O)[C@H](CC(C)C)NC(=O)[C@H](C)NC(=O)[C@H](Cc2c[nH]c3ccccc23)NC(=O)[C@H](Cc2ccc(O)cc2)NC(=O)[C@H](CCC(=O)O)NC1=O)[C@@H](C)O [VIP-122],3.7 ± 0.9
2,CC(C)C[C@@H]1NC(=O)[C@H](C)NC(=O)[C@H](Cc2c[nH]c3ccccc23)NC(=O)[C@H](Cc2ccc(O)cc2)NC(=O)[C@H](CCC(=O)O)NC(=O)[C@](C)(NC(=O)[C@H](Cc2ccccc2)NC(=O)[C@H](CO)NC(=O)[C@@H](NC(=O)CNC(=O)[C@H](CO)NC(=O)CNC(=O)[C@H](CO)NC(=O)CCCC[C@@H]2SC[C@@H]3NC(=O)N[C@@H]32)[C@@H](C)O)CCCCCCC=CCCC[C@@](C)(C(N)=O)NC(=O)[C@H](CC(C)C)NC1=O [VIP-150],54.2 ± 5.9
3,CC(=O)N[C@@H](CCCCN)C(=O)N[C@@H](CCCCN)C(=O)NCCCCCC(=O)N[C@H](C(=O)N[C@@H](CO)C(=O)N[C@@H](Cc1ccccc1)C(=O)N[C@]1(C)CCCCCCC=CCCC[C@@](C)(C(N)=O)NC(=O)[C@H](CC(C)C)NC(=O)[C@H](CC(C)C)NC(=O)[C@H](C)NC(=O)[C@H](Cc2c[nH]c3ccccc23)NC(=O)[C@H](Cc2ccc(O)cc2)NC(=O)[C@H](CCC(=O)O)NC1=O)[C@@H](C)O [VIP-77],46.8 ± 3.9
4,CC(=O)N[C@H](C(=O)N[C@@H](CO)C(=O)N[C@@H](Cc1ccccc1)C(=O)N[C@]1(C)CCCCCCC=CCCC[C@@](C)(C(=O)N[C@@H](CCC(=O)O)C(=O)N[C@@H](CC(N)=O)C(=O)N[C@@H](Cc2ccccc2)C(N)=O)NC(=O)[C@H](CC(C)C)NC(=O)[C@H](CC(C)C)NC(=O)[C@H](C)NC(=O)[C@H](Cc2c[nH]c3ccccc23)NC(=O)[C@H](Cc2ccc(O)cc2)NC(=O)[C@H](CCC(=O)O)NC1=O)[C@@H](C)O [VIP-65],19.7 ± 1.3
5,CC(=O)N[C@@H](CCCCN(C)C)C(=O)N[C@@H](CCCCN(C)C)C(=O)NCCCCCC(=O)N[C@H](C(=O)N[C@@H](CO)C(=O)N[C@@H](Cc1ccccc1)C(=O)N[C@]1(C)CCCCCCC=CCCC[C@@](C)(C(=O)N[C@@H](CCC(=O)O)C(=O)N[C@@H](CC(N)=O)C(=O)N[C@@H](Cc2ccccc2)C(N)=O)NC(=O)[C@H](CC(C)C)NC(=O)[C@H](CC(C)C)NC(=O)[C@H](C)NC(=O)[C@H](Cc2c[nH]c3ccccc23)NC(=O)[C@H](Cc2ccc(O)cc2)NC(=O)[C@H](CCC(=O)O)NC1=O)[C@@H](C)O [VIP-131] (Ac-[Lys(Me2)][Lys(Me2)][Ahx]TSF[R8]EYWALL[S5]ENF-NH2; staple 7-14),25.6 ± 2.6
6,CC(=O)N[C@@H](CCCNC(=N)N)C(=O)N[C@@H](CCCNC(=N)N)C(=O)NCCCCCC(=O)N[C@H](C(=O)N[C@@H](CO)C(=O)N[C@@H](Cc1ccccc1)C(=O)N[C@]1(C)CCCCCCC=CCCC[C@@](C)(C(=O)N[C@@H](CCC(=O)O)C(=O)N[C@@H](CC(N)=O)C(=O)N[C@@H](Cc2ccccc2)C(N)=O)NC(=O)[C@H](CC(C)C)NC(=O)[C@H](CC(C)C)NC(=O)[C@H](C)NC(=O)[C@H](Cc2c[nH]c3ccccc23)NC(=O)[C@H](Cc2ccc(O)cc2)NC(=O)[C@H](CCC(=O)O)NC1=O)[C@@H](C)O [VIP-117] (Ac-RR[Ahx]TSF[R8]EYWALL[S5]ENF-NH2; staple 7-14),160 ± 14.6
